Test results: publication PMC11672540 (2024)

How the values were obtained:
Test in all cases: ITC
[1] = test system: MT2-R1 (DNA, aptamer, none) GGGACGACGCTAGGGGATCTTTTGGGGTTTGTATGGGCGTCGTCCC; settings: 137 mM NaCl, 2.7 mM KCl, 1 mM MgCl2; 1x PBS, 23 °C
[2] = test system: ML4 (DNA, aptamer, none) TTCAAATCTTGGTACGTTCTGCCTTTTCTTATTTTGCTTTGGGTTACCTAGTCTAGATTTGAA; settings: 0.5x PBS (about 68 mM NaCl, 1.4 mM KCl), 5 mM MgCl2
[3] = test system: ML12 (DNA, aptamer, none) TTCAAATCTGCGGCGACTAATTCTTAGTGGTGGTTGCAATGCGCTGGGATGAGTCTAGATTTGAA; settings: 0.5x PBS (about 68 mM NaCl, 1.4 mM KCl), 5 mM MgCl2, 23 °C
[4] = test system: ML13 (DNA, aptamer, none) TTCAAATCTGAGCAGCCTAGTTACTGACGGGTTTATAGTACTCGCACTGAGTCTAGATTTGAA; settings: 0.5x PBS (about 68 mM NaCl, 1.4 mM KCl), 5 mM MgCl2, 23 °C
[5] = test system: 84-nt aptaMETH (DNA, aptamer, none) ACTGGAGCTCAATCAGTACACGACGGTTGCAAGTGGGACTCTGGTAGGCTGGGTTAATTTGGGACAAGCTTCAACCATGGAGTA; settings: 200 mM NaCl, 5 mM MgCl2; 20 mM Tris pH 7.4, 23 °C
[6] = test system: Aptamer-2 (DNA, aptamer, none) AGGAATTCAGATCTCCCTGCAGGTGGTGTTTTTTTTGTGTGCTGTGTTTTTGTGATGCATGCTCGAGGAGCTCAGGATCCCG; settings: 10 mM NaCl, 0.5 mM KCl, 0.2 mM MgCl2, 0.1 mM CaCl2; 2 mM Tris-HCl, 23 °C; very weak or no binding
[7] = test system: MT2-R2 (DNA, aptamer, none) GGGACGACGAGGGGATCCATCCAATGGGGTTTGTATACGTCGTCCC; settings: 137 mM NaCl, 2.7 mM KCl, 1 mM MgCl2; 1x PBS, 23 °C
[8] = test system: MT2-R3 (DNA, aptamer, none) GGGACGACGGTACCCGCCGGTGCAGGATCTGGGGTGGTGTCGTCCC; settings: 137 mM NaCl, 2.7 mM KCl, 1 mM MgCl2; 1x PBS, 23 °C
[9] = test system: MT2-R4 (DNA, aptamer, none) GGGACGACGGCAATTGCCGGTGCAGGATCTGAATTATCGTCGTCCC; settings: 137 mM NaCl, 2.7 mM KCl, 1 mM MgCl2; 1x PBS, 23 °C
[10] = test system: M4 (DNA, aptamer, none) GGGACGACGCACTATGGCTAGGGTTGGTACGGTCGTGAACCGCGGGGTGTCGTCCC; settings: 137 mM NaCl, 2.7 mM KCl, 1 mM MgCl2; 1x PBS, 23 °C
[11] = test system: M13 (DNA, aptamer, none) GGGACGACGGCACGAGGTTATTCGTTGGTTGCACTGCGCTGGGAGGAAGTCGTCCC; settings: 137 mM NaCl, 2.7 mM KCl, 1 mM MgCl2; 1x PBS, 23 °C; lowest KD of trial 3
[12] = test system: ML3 (DNA, aptamer, none) TTCAAATCTTATGTACGTTCTATCGCATGGATGGGATTTTGGGTTACCTAGTCTAGATTTGAA; settings: 0.5x PBS (about 68 mM NaCl, 1.4 mM KCl), 5 mM MgCl2; 0.5x PBS pH 7.4, 0.005% Triton X-100, 23 °C; 9.9 at 2 mM, 34.3 at 1 mM Mg2+
[13] = test system: ML7 (DNA, aptamer, none) TTCAAATCTGGTGCCCTTTCGCAGTCGGTTGGTAATGAGATCACTTTAGAGTCTAGATTTGAA; settings: 0.5x PBS (about 68 mM NaCl, 1.4 mM KCl), 5 mM MgCl2, 23 °C
[14] = test system: ML10 (DNA, aptamer, none) TTCAAATCTGAGCAGCCTAGTTACTGACGGGTTTATAGTACTCACATTGAGTCTAGATTTGAA; settings: 0.5x PBS (about 68 mM NaCl, 1.4 mM KCl), 5 mM MgCl2, 23 °C
[15] = test system: ML11 (DNA, aptamer, none) TTCAAATCTGAGCAGCCTAGTTACTGACGGGTTTATAGTACTCGTATTGAGTCTAGATTTGAA; settings: 0.5x PBS (about 68 mM NaCl, 1.4 mM KCl), 5 mM MgCl2, 23 °C
[16] = test system: ML3-mut1 (DNA, aptamer, none) TTCAAATCTTATGTAAGTTCTATCGCATGGATGGGATTTTGGGTTACCTAGTCTAGATTTGAA; settings: 0.5x PBS (about 68 mM NaCl, 1.4 mM KCl), 5 mM MgCl2, 0.005% Triton X-100, 23 °C
[17] = test system: ML3-mut2 (DNA, aptamer, none) TTCAAATCTTATGTACGTACTATCGCATGGATGGGATTTTGGGTTACCTAGTCTAGATTTGAA; settings: 0.5x PBS (about 68 mM NaCl, 1.4 mM KCl), 5 mM MgCl2, 0.005% Triton X-100, 23 °C
[18] = test system: ML3-mut3 (DNA, aptamer, none) TTCAAATCTTATGTACGTTCTATCGCATGGATGTGATTTTGGGTTACCTAGTCTAGATTTGAA; settings: 0.5x PBS (about 68 mM NaCl, 1.4 mM KCl), 5 mM MgCl2, 0.005% Triton X-100, 23 °C
[19] = test system: ML3-mut4 (DNA, aptamer, none) TTCAAATCTTATGTACGTTCTATCGCATGGATGGGATTATGGGTTACCTAGTCTAGATTTGAA; settings: 0.5x PBS (about 68 mM NaCl, 1.4 mM KCl), 5 mM MgCl2, 0.005% Triton X-100, 23 °C
[20] = test system: ML3-mut5 (DNA, aptamer, none) TTCAAATCTTATGTACGTTCTATCGCATGGATGGGATTTTTGGTTACCTAGTCTAGATTTGAA; settings: 0.5x PBS (about 68 mM NaCl, 1.4 mM KCl), 5 mM MgCl2, 0.005% Triton X-100, 23 °C, table says NA, 2000 titrant, 50 aptamer
[21] = test system: ML3-mut6 (DNA, aptamer, none) TTCAAATCTTATGTACGTTCTATCGCATGGATGGGATTTTGGGTTACCAAGTCTAGATTTGAA; settings: 0.5x PBS (about 68 mM NaCl, 1.4 mM KCl), 5 mM MgCl2, 0.005% Triton X-100, 23 °C, table says NA, 2000 titrant, 50 aptamer
[22] = test system: ML4-mut1 (DNA, aptamer, none) TTCAAATCTTGGTACGTACTGCCTTTTCTTATTTTGCTTTGGGTTACCTAGTCTAGATTTGAA; settings: 0.5x PBS (about 68 mM NaCl, 1.4 mM KCl), 5 mM MgCl2, 0.005% Triton X-100, 23 °C
[23] = test system: ML4-mut2 (DNA, aptamer, none) TTCAAATCTTGGTACGTTCTGCATTTTCTTATTTTGCTTTGGGTTACCTAGTCTAGATTTGAA; settings: 0.5x PBS (about 68 mM NaCl, 1.4 mM KCl), 5 mM MgCl2, 0.005% Triton X-100, 23 °C
[24] = test system: ML4-mut3 (DNA, aptamer, none) TTCAAATCTTGGTACGTTCTGCCTATTCTTATTTTGCTTTGGGTTACCTAGTCTAGATTTGAA; settings: 0.5x PBS (about 68 mM NaCl, 1.4 mM KCl), 5 mM MgCl2, 0.005% Triton X-100, 23 °C
[25] = test system: ML4-mut4 (DNA, aptamer, none) TTCAAATCTTGGTACGTTCTGCCTTTACTTATTTTGCTTTGGGTTACCTAGTCTAGATTTGAA; settings: 0.5x PBS (about 68 mM NaCl, 1.4 mM KCl), 5 mM MgCl2, 0.005% Triton X-100, 23 °C
[26] = test system: ML4-mut5 (DNA, aptamer, none) TTCAAATCTTGGTACGTTCTGCCTTTTCTTATATTGCTTTGGGTTACCTAGTCTAGATTTGAA; settings: 0.5x PBS (about 68 mM NaCl, 1.4 mM KCl), 5 mM MgCl2, 0.005% Triton X-100, 23 °C
[27] = test system: ML4-mut6 (DNA, aptamer, none) TTCAAATCTTGGTACGTTCTGCCTTTTCTTATTTAGCTTTGGGTTACCTAGTCTAGATTTGAA; settings: 0.5x PBS (about 68 mM NaCl, 1.4 mM KCl), 5 mM MgCl2, 0.005% Triton X-100, 23 °C
[28] = test system: ML4-mut7 (DNA, aptamer, none) TTCAAATCTTGGTACGTTCTGCCTTTTCTTATTTTGCTATGGGTTACCTAGTCTAGATTTGAA; settings: 0.5x PBS (about 68 mM NaCl, 1.4 mM KCl), 5 mM MgCl2, 0.005% Triton X-100, 23 °C

CC(N)Cc1ccccc1 (stereo not shown)
KD [1]: 5.7 ± 0.2 µM | KD ([2]; 0.5x PBS, 23 °C): 117 ± 4 µM | KD [3]: 18.2 ± 0.5 µM | KD ([4]; double titration): 140 ± 3.9 µM

CCCC(C(=O)c1ccc2c(c1)OCO2)N1CCCC1 (stereo not shown)
KD ([2]; 0.5x PBS, 23 °C): 344 ± 23 µM

CNC(C)Cc1ccc(O)cc1 (stereo not shown)
KD ([2]; 0.5x PBS, 23 °C): 255 ± 8 µM

CNC(C)Cc1ccc2c(c1)OCO2 (stereo not shown)
KD ([2]; 0.5x PBS, 23 °C): 223 ± 8 µM

CN[C@@H](C)Cc1ccccc1
KD [5]: 364 ± 28 µM | KD [6]: > 1000 µM | KD [1]: 2.5 ± 0.1 µM | KD [7]: 5.0 ± 0.1 µM | KD [8]: 18.0 ± 1.1 µM | KD [9]: 10.1 ± 0.7 µM | KD [10]: 12 µM | KD [11]: 3.3 µM | KD [12]: 1.5 ± 0.1 µM | KD ([2]; 0.5x PBS pH 7.4, 0.005% Triton X-100, 23 °C, 16.2 at 2 mM, 65.2 at 1 mM Mg2+): 2.5 ± 0.1 µM | KD [13]: 1.30 ± 0.03 µM | KD [14]: 1.9 ± 0.1 µM | KD [15]: 2.4 ± 0.1 µM | KD [3]: 5.7 ± 0.3 µM | KD [4]: 7.0 ± 0.4 µM | KD [16]: 408 ± 16 µM | KD [17]: 39.0 ± 1.8 µM | KD [18]: 1.4 ± 0.1 µM | KD [19]: 72.5 ± 3.1 µM | KD [20]: > 1000 µM | KD [21]: > 1000 µM | KD [22]: 67.1 ± 4.1 µM | KD [23]: 4.0 ± 0.1 µM | KD [24]: 3.2 ± 0.1 µM | KD [25]: 4.9 ± 0.2 µM | KD [26]: 3.3 ± 0.1 µM | KD [27]: 3.8 ± 0.1 µM | KD [28]: 64.3 ± 3.9 µM

CN[C@@H](C)[C@@H](O)c1ccccc1
KD ([2]; 0.5x PBS, 23 °C): 372 ± 24 µM

CN[C@H](C)Cc1ccccc1
KD [5]: > 1000 µM | KD [6]: > 1000 µM | KD ([2]; 0.5x PBS, 23 °C): 450 ± 21 µM

COC(=O)C(c1ccccc1)C1CCCCN1 (stereo not shown)
KD ([2]; 0.5x PBS, 23 °C): 749 ± 10 µM
